Earlier results as cited in the CATMoS acute toxicity set (Mansouri et al. 2021).
“And” between values parts separate entries of the source, which are not always exact repeats. Identical values can stand only once.

Test: rat acute oral toxicity
Settings: in vivo

## O=C(O)c1ccc2c(c1)CCC(Cn1ccnc1)C2 (centres undefined)
  LD50: 1990 mg/kg

## CCCCNC(=S)N(CCCC)CCCC
  LD50: 3000 mg/kg

## CC(C)(OO)c1cccc(C(C)(C)OO)c1
  LD50: 1500 mg/kg

## C#CC(C)(O)C(O)c1ccccc1 (centres undefined)
  LD50: 730 mg/kg

## Nc1c(Cl)cc(Cl)cc1Cl
  LD50: 2400 mg/kg

## Clc1cccc(-c2cc(Cl)cc(Cl)c2)c1
  LD50: 2300 mg/kg

## FC(F)(F)c1nc2cc(Cl)c(Cl)cc2[nH]1
  LD50: 7.88 mg/kg

## CCc1ncc(C)nc1C
  LD50: 456 mg/kg

## CCOC(=O)C(SP(=O)(OC)OC)c1ccccc1 (centres undefined)
  LD50: 63 mg/kg

## FC(F)(F)c1ccc2nc(C(F)(F)F)[nH]c2c1
  LD50: 9.02 mg/kg

## Fc1ccc(C(c2ccc(F)cc2)N2CCN(C/C=C/c3ccccc3)CC2)cc1
  LD50: 503 mg/kg

## CN(C)N=Nc1cccc(C(N)=O)c1
  LD50: 54 mg/kg

## CC(=O)O[C@H]1C[C@@H]2CC[C@@H]3[C@H](CC[C@@]4(C)[C@H]3C[C@H]([N+]3(C)CCCCC3)[C@@H]4OC(C)=O)[C@@]2(C)C[C@@H]1[N+]1(C)CCCCC1
  LD50: 202 mg/kg

## O=C1OC(=O)C2CCCCC12 (centres undefined)
  LD50: 4040 mg/kg

## C=CC1(C)CCC(C(C)(C)O)O1 (centres undefined)
  LD50: 1150 mg/kg

## CC1(C)[C@H](C(=O)O[C@H](C#N)c2cccc(Oc3ccccc3)c2)[C@@H]1/C=C(\Cl)C(F)(F)F (single isomer, unassigned)
  LD50: 56 mg/kg

## CC(C)NC1Cc2ccccc2Cc2ccccc21 (centres undefined)
  LD50: 500 mg/kg

## COc1ccc(C(C)=O)cc1
  LD50: 1720 mg/kg

## COP(=S)(OC)Oc1cc(C)n(C)c(=O)c1
  LD50: 0.812 mg/kg

## CCCCC(CC)COC(C[n+]1ccccc1)c1cccc(Cl)c1 (centres undefined)
  LD50: 250 mg/kg

## c1ccc2c(c1)OCO2
  LD50: 580 mg/kg

## COc1cc(Oc2ccc(Cl)cc2Cl)ccc1[N+](=O)[O-]
  LD50: 18000 mg/kg

## O=C1C(Cc2ccccc2)C(=O)N(c2ccccc2)N1c1ccccc1
  LD50: 297 mg/kg

## CCCCCCCc1ccc(O)cc1O
  LD50: 1300 mg/kg

## O=C(NCCN1CCOCC1)c1ccc(Cl)cc1
  LD50: 707 mg/kg

## CCCC(C)(COC(N)=O)COC(=O)NC(C)C (centres undefined)
  LD50: 1320 mg/kg

## CN(C)CCCN(C)[C@H]1CC[C@H]2[C@@H]3CC=C4C[C@@H](O)CC[C@]4(C)[C@H]3CC[C@]12C
  LD50: 470 mg/kg

## CC1OC1C (centres undefined)
  LD50: 2150 mg/kg

## CCCC=C(CC)C(=O)O
  LD50: 5660 mg/kg

## [SiH3]CCCCC(Cl)(Cl)Cl
  LD50: 2340 mg/kg

## C=CC(C)(CCC=C(C)C)OC(=O)C=Cc1ccccc1 (centres undefined)
  LD50: 9960 mg/kg

## CC(=O)Oc1c(C)ncc2c1COC(C(C)C)OC2 (centres undefined)
  LD50: 2850 mg/kg

## SCCc1cnccn1
  LD50: 158 mg/kg

## COc1cc(S(C)=O)ccc1-c1nc2ccncc2[nH]1 (centres undefined)
  LD50: 132 mg/kg

## CCOC(=O)C1=CNC2CCCC(C)N2C1=O (centres undefined)
  LD50: 2500 mg/kg

## O=C(c1cc(O)c(O)c(O)c1)c1ccc(O)c(O)c1O
  LD50: 1420 mg/kg

## CCCCC(CC)C(=O)O[Si](C)(OC(=O)C(CC)CCCC)OC(=O)C(CC)CCCC (centres undefined)
  LD50: 2280 mg/kg

## CC(C)(C)c1ccc(OCC(O)COc2ccc(C(=O)O)cc2)cc1 (centres undefined)
  LD50: 2400 mg/kg

## CCN1CC(CCN2CCOCC2)C(c2ccccc2)(c2ccccc2)C1=O (centres undefined)
  LD50: 261 mg/kg

## CN(C)C(=O)SCCCCOc1ccccc1
  LD50: 1150 mg/kg

## Clc1cc(Cl)c(Cl)c(-c2cc(Cl)c(-c3cc(Cl)c(Cl)c(Cl)c3)c(Cl)c2Cl)c1
  LD50: 19200 mg/kg

## C=CCC(C(=O)NC(N)=O)C(C)C (centres undefined)
  LD50: 1050 mg/kg

## CCCCCC(=O)NP(=O)(OC)SC (centres undefined)
  LD50: 25 mg/kg

## CCCCCCCCCCCCCCCCCCOP(=O)([O-])OCC[N+]1(C)CCCCC1
  LD50: 631 mg/kg

## CCC(C)c1ccccc1 (centres undefined)
  LD50: 2240 mg/kg

## CN1CCN(C(=O)OC2c3nccnc3C(=O)N2c2ccc(Cl)cn2)CC1 (centres undefined)
  LD50: 827 mg/kg

## CC(C)OP(=S)(CCl)Sc1ccc(Br)cc1 (centres undefined)
  LD50: 23 mg/kg

## COc1cccc2c1cc([N+](=O)[O-])c1c(C(=O)O)cc3c(c12)OCO3
  LD50: 184 mg/kg

## c1ccc2[nH]ccc2c1
  LD50: 1000 mg/kg

## COC(=O)c1ccc(NC(C)=O)o1
  LD50: 1200 mg/kg

## CC[N+](CC)(CC)CC
  LD50: 2630 mg/kg

## Oc1ccc(N=Cc2ccccc2)cc1
  LD50: 3500 mg/kg

## O=S1(=O)CCC(NC(=S)S)C1 (centres undefined)
  LD50: 1700 mg/kg

## CCCCOC(=O)/C=C/C(=O)OCCCC
  LD50: 8530 mg/kg

## O=C(CCl)c1ccc(Cl)cc1Cl
  LD50: 300 mg/kg

## COC(=O)C1=C(C)NC(C)=C(C(=O)OCC(C)(C)CN(C)Cc2ccccc2)C1c1cc([N+](=O)[O-])ccc1F (centres undefined)
  LD50: 30.5 mg/kg

## CCC(=O)OC(C)c1ccccc1 (centres undefined)
  LD50: 5200 mg/kg

## CCC1C(C)=NN=C(c2ccc(OC)c(OC)c2)c2cc(OC)c(OC)cc21 (centres undefined)
  LD50: 825 mg/kg

## NC1CCCCC1
  LD50: 720 mg/kg and 1650 mg/kg

## OCC(Br)C(Br)CO (centres undefined)
  LD50: 2460 mg/kg

## Fc1ccc(SCc2ccc(Cl)cc2)cc1
  LD50: 3000 mg/kg

## O=C(CF)Nc1ccccn1
  LD50: 8 mg/kg

## Nc1ccc(C(=O)c2ccccc2)c(C(=O)O)c1
  LD50: 5400 mg/kg

## CCOC(=O)[N-]c1c[n+](N2CCOCC2)no1
  LD50: 1050 mg/kg

## CCC(=C(c1ccc(OCCN(C)C)cc1)c1ccc(OP(=O)(O)O)cc1)c1ccc(C(C)C)cc1
  LD50: 785 mg/kg

## COc1ccc(CC2NCCc3cc(OC)c(OC)cc32)cc1OC (centres undefined)
  LD50: 700 mg/kg

## O=C1NC(=O)C(c2ccccc2)(c2ccccc2)N1S(=O)(=O)c1ccccc1
  LD50: 1700 mg/kg

## O[C@@H](c1cc(C(F)(F)F)nc2c(Cl)cc(Cl)cc12)[C@@H]1CCCCN1
  LD50: 1130 mg/kg

## C[N+]1(CCC(O)(c2ccccc2)c2cccs2)CCOCC1 (centres undefined)
  LD50: 2300 mg/kg
